The values that follow come from publication PMC10255489, “Targeting Anti-Inflammatory Pathways to Treat Diabetes-Induced Neuropathy by 6-Hydroxyflavanone” (Nutrients, 2023).

Each structure is given as a SMILES string.

Test [1] concerns the target T1, cyclooxygenase-2 (COX-2) (Homo sapiens, UniProt P35354).
T1 construct: gene PTGS2
T1 sequence (P35354 18-604): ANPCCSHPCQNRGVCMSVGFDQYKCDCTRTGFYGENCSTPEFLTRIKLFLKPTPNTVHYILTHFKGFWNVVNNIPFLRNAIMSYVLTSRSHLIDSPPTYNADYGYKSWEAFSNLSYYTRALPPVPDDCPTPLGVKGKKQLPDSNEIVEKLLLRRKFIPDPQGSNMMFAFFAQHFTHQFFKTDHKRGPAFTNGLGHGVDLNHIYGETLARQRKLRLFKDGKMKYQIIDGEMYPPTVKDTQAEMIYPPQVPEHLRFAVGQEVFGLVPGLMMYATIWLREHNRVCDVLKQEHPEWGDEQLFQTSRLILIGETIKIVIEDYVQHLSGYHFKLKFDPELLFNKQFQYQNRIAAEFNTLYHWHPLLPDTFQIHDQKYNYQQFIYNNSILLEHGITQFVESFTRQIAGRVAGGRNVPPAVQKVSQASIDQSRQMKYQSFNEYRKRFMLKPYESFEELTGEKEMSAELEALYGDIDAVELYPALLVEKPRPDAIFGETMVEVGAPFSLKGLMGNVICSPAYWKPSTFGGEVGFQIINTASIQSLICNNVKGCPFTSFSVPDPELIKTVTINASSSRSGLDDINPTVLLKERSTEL
Kind of test: colorimetric COX inhibitor screening assay (Cayman […]), human recombinant COX-2.

In test [2] the target is T2, 5-lipoxygenase (5-LOX) (Homo sapiens, UniProt P09917).
T2 construct: gene ALOX5
T2 sequence (P09917 1-674): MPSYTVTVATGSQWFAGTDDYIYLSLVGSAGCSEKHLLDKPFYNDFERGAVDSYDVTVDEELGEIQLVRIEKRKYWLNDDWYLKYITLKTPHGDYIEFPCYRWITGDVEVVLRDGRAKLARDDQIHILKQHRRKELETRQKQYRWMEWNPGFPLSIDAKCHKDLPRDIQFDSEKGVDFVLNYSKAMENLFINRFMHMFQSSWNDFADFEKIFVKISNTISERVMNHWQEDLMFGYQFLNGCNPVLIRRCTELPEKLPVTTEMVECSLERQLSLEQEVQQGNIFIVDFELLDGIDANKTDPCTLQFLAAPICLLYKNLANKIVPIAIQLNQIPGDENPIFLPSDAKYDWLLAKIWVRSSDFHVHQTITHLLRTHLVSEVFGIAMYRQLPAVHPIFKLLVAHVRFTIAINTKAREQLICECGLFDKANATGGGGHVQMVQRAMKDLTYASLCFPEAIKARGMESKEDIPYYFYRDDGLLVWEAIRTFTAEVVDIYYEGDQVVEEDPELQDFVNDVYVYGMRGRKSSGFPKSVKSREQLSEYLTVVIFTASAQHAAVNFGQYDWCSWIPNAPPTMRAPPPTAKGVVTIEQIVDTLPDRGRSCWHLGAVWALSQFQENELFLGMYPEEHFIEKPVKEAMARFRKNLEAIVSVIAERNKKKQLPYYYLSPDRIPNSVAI
Kind of test: UV ([…] nm) linoleic acid to HPOD assay, human recombinant 5-LOX. It is filed as biochemical.

As for `O=C1CC(c2ccccc2)Oc2ccc(O)cc21` (centres unmarked) [6-HF, 6-Hydroxyflavanone], the IC50 (as a rule, the concentration at which inhibition is half-maximal) was determined as 21.9 µM in test [1] and 36 µM in test [2].
